According to patent US9028860B2, “Partially microcellular, selectively hydrophilic composite construct for ocular drug delivery” (Poly-Med, Inc., priority 2010, dated 2015):

Test: Drug delivery profile: diffusion of loaded drug from foam-film composite to wetted receptor foam piece, HPLC
Type: physicochemical
Conditions: 1x1 cm composite loaded with 100 μL of 261.5 mg/mL solution; on wetted 2x2 cm foam piece; 10 minutes, 37° C.
Protocol: • A foam-film composite made using the process outlined in example 3 was used to evaluate the drug delivery profile of said composite after drug loading. This was done by loading a dry 1×1 cm piece of the composite foam-film with 100 μL of our 261.5 mg/mL solution of dexamethasone disodium phosphate in nanopure water. This piece was then placed on top of a wetted 2×2 cm piece without the flexible film. These two pieces were left in contact for a period of 10 minutes at 37° C. After […] the pieces were separated and the receptor (bottom) piece was placed into a vial. At this point 5 mL of water was added to the vial and the piece was shaken in this new volume of water for 10 minutes. The aqueous layer was then filtered through a 0.45 μm filter and run on a reverse phase HPLC. Using a C18 column and a 12 minute gradient method of water and acetonitrile, it was determined that about 12 mg or about 45% of the loaded DSP diffused to the receptor (bottom) piece.

C[C@@H]1C[C@H]2[C@@H]3CCC4=CC(=O)C=C[C@]4(C)[C@@]3(F)[C@@H](O)C[C@]2(C)[C@@]1(O)C(=O)COP(=O)([O-])[O-].[Na+].[Na+] [DSP, dexamethasone disodium phosphate]
amount of DSP diffused to the receptor (bottom) piece: about 12 mg | percent of the loaded DSP diffused to the receptor (bottom) piece: about 45%
